Publication PMC9780108, “An intrinsically disordered antimicrobial peptide dendrimer from stereorandomized virtual screening” (Cell Reports. Physical Science, 2022)

Columns and labels:
human red blood cells = experiment: Hemolysis assay (MHC); conditions: Table 1; human red blood cells in PBS (pH 7.4), 4 h, visual inspection; two independent experiments in duplicate
HEK293 cell line = format: cell-based; conditions: HEK293 cell line, 48 h at 37°C, DMEM 10% FBS, AlamarBlue; mean ± SD, three independent experiments in triplicates
Summary of the method: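 HEK293 cells seeded at 2 × 10³/well, incubated 48 h at 37 °C with serially diluted compounds (stock 2 mg/mL) in DMEM with 10% FBS. AlamarBlue added at 10% final for 3–5 h; fluorescence ex 560/em 590 nm, normalized to untreated cells.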

[1] = tested on: S aureus COL (methicillin-resistant Staphylococcus aureus); conditions: broth microdilution, two independent experiments in duplicate
P. aeruginosa PA14 = conditions: MH medium pH 7.4, 16–20 h at 37°C; two independent experiments in duplicate
A. baumannii ATCC 19606 = conditions: broth microdilution, two independent experiments in duplicate
P. aeruginosa ZEM9A = conditions: clinical isolate; MH medium pH 7.4, 16–20 h at 37°C; two independent experiments in duplicate
S. maltophilia = conditions: MH medium pH 7.4, 16–20 h at 37°C; two independent experiments in duplicate
B. cenocepacia = conditions: MH medium pH 7.4, 16–20 h at 37°C; two independent experiments in duplicate
K. pneumoniae OXA-48 = conditions: carbapenem-resistant strain; MH medium pH 7.4, 16–20 h at 37°C; two independent experiments in duplicate
E. coli W3110 = conditions: broth microdilution, two independent experiments in duplicate
P. aeruginosa PAO1 [2] = conditions: broth microdilution, two independent experiments in duplicate
S. aureus Newman = conditions: MH medium pH 7.4, 16–20 h at 37°C; two independent experiments in duplicate
E. cloacae = conditions: MH medium pH 7.4, 16–20 h at 37°C; two independent experiments in duplicate
P. aeruginosa PAO1 [3] = experiment: PI cell permeabilization assay (flow cytometry); format: cell-based, Pseudomonas aeruginosa; conditions: PAO1 (OD600 = 1) incubated 20 min at 37°C, PI 5 µg/mL
Protocol: page 31: 12. Cell Membrane Permeability Assay Propidium iodide (PI) was used as the fluorescent dye to evaluate integrity of bacterial membranes. A single colony of Pseudomonas aeruginosa PAO1 was grown overnight with shaking (150 rpm) in LB-broth (5 mL) at 37 °C. 100 μL of the overnight culture was regrown in 10 mL LB-broth to the exponential phase OD600 1 (10^9 CFU/mL). Bacteria was washed with MH and then re-suspended to a working concentration of OD600 = 1. AMPDs and polymyxin B (stock solution 1 mg/mL) were added at different final concentrations ( 16, 32 and 64 μg/mL). Samples were incubated with shaking (150 rpm) at 37°C for 20 minutes before samples were centrifuged at 14 000 rpm for 3 min. Bacteria sample was washed twice with PBS and stained with PI 5 µg/mL in PBS with shaking (150 rpm) at 37°C for 20 minutes. Bacteria sample was washed 5 times with PBS and the fluorescence intensity of bacteria suspensions was observed and recorded on a ImageStream ® X Mark II Imaging Flow Cytometer with a 488 nm laser , bacteria cells wi th fluorescent intensity higher than 2 × 104 is defined as PI positive cells. Percentage of PI positive cells was calculated by IDEA S workstation . S30

P. aeruginosa ZEM-1A = conditions: MDR clinical isolate; MH medium pH 7.4, 16–20 h at 37°C; two independent experiments in duplicate
K. pneumoniae NCTC 418 = conditions: broth microdilution, two independent experiments in duplicate
P. aeruginosa PAO1 [4] = experiment: DiSC3(5) inner membrane depolarization assay; format: cell-based, Pseudomonas aeruginosa; conditions: PAO1 in HEPES buffer pH 7.4, 2 μM DiSC3(5), up to 64 μg/mL, read within 5 min
Protocol: page 29: 11. DiSC3(5) Membrane Depolarization Assay A single colony of Pseudomonas aeruginosa PAO1 was grown overnight with shaking (150 rpm) in LB-broth (5 mL) at 37 °C. 100 μL of the overnight culture was regrown in 10 mL LB- broth with shaking (200 rpm) to the exponential phase OD 600 = 1 (10^9 CFU/mL). Bacteria were washed once with HEPES buffer (5 mM HEPES, 5 mM glucose, pH 7.4) and diluted to OD 600 = 0.4. Stock solution of 10 mM of DiSC3(5) was prepared in DMSO. Stock solutions of 1 mg/mL of the compounds were prepared in sterilized milli-Q water and diluted to the beginning concentration of 128 μg/mL in 200 μL HEPES buffer containing […] the fluorescent probe DiSC3(5) 4 μM. The diluted samples were added to the first well of 96-well plates (black wells, flat bottom, BRAND® GmbH Wertheim, Germany) and diluted serially by 1/2. 100 μL of the bacterial suspension in HEPES buffer (without DiSC3(5)) were added to each well. In this case, the final OD of bacteria was 0.2, the final concentration of peptide in the first column is 64 μg/mL and DiSC3(5) 2 μM. The control wells are buffer containing DiSC3(5) and bacterial suspension containing DiSC3(5) in HEPES buffer. The plate was measured with a Tecan instrument Infinite M1000 within 5 min. The plate was enabled to shake for 5 sec before measurement. […]

[5] = Müller-Hinton medium pH 5.0, 16–20 h at 37°C
[6] = Müller-Hinton medium pH 8.0, 16–20 h at 37°C
[7] = Table 1, Müller-Hinton medium pH 7.4, 16–20 h at 37°C

polymyxin B [PMB, reference compound]
MHC (minimum hemolytic concentration) (human red blood cells): >2,000 μg/mL
IC50 HEK293 (HEK293 cell line): 346 ± 20 mg/L
MIC at pH 5.0, S aureus COL [1, 5]: > 64 μg/mL
MIC at pH 7.4, S aureus COL ([1]; Müller-Hinton medium pH 7.4, 16–20 h at 37°C): > 64 μg/mL
MIC at pH 8.0, S aureus COL [1, 6]: 4 μg/mL
MIC, P. aeruginosa PA14 (P. aeruginosa PA14): 0.5 mg/L
MIC at pH 7.4, A. baumannii ATCC 19606 (A. baumannii ATCC 19606; [7]): 0.25 μg/mL
MIC at pH 5.0, A. baumannii ATCC 19606 (A. baumannii ATCC 19606; [5]): 1 μg/mL
MIC at pH 8.0, A. baumannii ATCC 19606 (A. baumannii ATCC 19606; [6]): 0.25 μg/mL
MIC, P. aeruginosa ZEM9A (P. aeruginosa ZEM9A): 64 mg/L
MIC, S. maltophilia (S. maltophilia): 4 mg/L
MIC, B. cenocepacia (B. cenocepacia): >64 mg/L
MIC, K. pneumoniae OXA-48 (K. pneumoniae OXA-48): 1 mg/L
MIC at pH 7.4, E. coli W3110 (E. coli W3110; [7]): 0.25 μg/mL
MIC at pH 5.0, E. coli W3110 (E. coli W3110; [5]): 0.02 μg/mL
MIC at pH 8.0, E. coli W3110 (E. coli W3110; [6]): 0.13 μg/mL
MIC at pH 7.4, P. aeruginosa PAO1 (P. aeruginosa PAO1 [2]; [7]): 0.5 μg/mL
MIC at pH 5.0, P. aeruginosa PAO1 (P. aeruginosa PAO1 [2]; [5]): 0.03 μg/mL
MIC at pH 8.0, P. aeruginosa PAO1 (P. aeruginosa PAO1 [2]; [6]): 0.5 μg/mL
MIC, S. aureus Newman (S. aureus Newman): >64 mg/L
MIC, E. cloacae (E. cloacae): 0.5 mg/L
Cell permeabilization (PI), percentage of PI-positive cells (P. aeruginosa PAO1 [3]; 16 μg/mL): 96%
Cell permeabilization (PI), percentage of PI-positive cells (P. aeruginosa PAO1 [3]; 32 μg/mL): 94%
Cell permeabilization (PI), percentage of PI-positive cells (P. aeruginosa PAO1 [3]; 64 μg/mL): 96%
MIC, P. aeruginosa ZEM-1A (P. aeruginosa ZEM-1A): 0.5 mg/L
MIC at pH 7.4, K. pneumoniae NCTC 418 (K. pneumoniae NCTC 418; [7]): 0.25 μg/mL
MIC at pH 5.0, K. pneumoniae NCTC 418 (K. pneumoniae NCTC 418; [5]): 8 μg/mL
MIC at pH 8.0, K. pneumoniae NCTC 418 (K. pneumoniae NCTC 418; [6]): 0.25 μg/mL
Inner membrane depolarization (DiSC3(5) fluorescence), words (P. aeruginosa PAO1 [4]): did not depolarize the inner membrane
